Measurements as given in paper PMC6959545 (European journal of medicinal chemistry, 2013).

Tests used:
[1] = target: T1, human TRPV1 (Homo sapiens, UniProt Q8NER1); assay: hTRPV1 antagonism of capsaicin; assay type: cell-based; conditions: for fold less potent than 12, CAP antagonism: compared with 2-pentyloxy derivative 12; for fold less potent than 11, CAP antagonism: compared with 2-butoxy derivative 11
[2] = system: mice (formalin test); assay: formalin test in mice, oral administration; assay type: in vivo
[3] = target: T1, human TRPV1; assay: hTRPV1 antagonism of pH activation, FLIPR; assay type: cell-based; conditions: compound 1 vs lead 2

T1 sequence (Q8NER1 whole entry): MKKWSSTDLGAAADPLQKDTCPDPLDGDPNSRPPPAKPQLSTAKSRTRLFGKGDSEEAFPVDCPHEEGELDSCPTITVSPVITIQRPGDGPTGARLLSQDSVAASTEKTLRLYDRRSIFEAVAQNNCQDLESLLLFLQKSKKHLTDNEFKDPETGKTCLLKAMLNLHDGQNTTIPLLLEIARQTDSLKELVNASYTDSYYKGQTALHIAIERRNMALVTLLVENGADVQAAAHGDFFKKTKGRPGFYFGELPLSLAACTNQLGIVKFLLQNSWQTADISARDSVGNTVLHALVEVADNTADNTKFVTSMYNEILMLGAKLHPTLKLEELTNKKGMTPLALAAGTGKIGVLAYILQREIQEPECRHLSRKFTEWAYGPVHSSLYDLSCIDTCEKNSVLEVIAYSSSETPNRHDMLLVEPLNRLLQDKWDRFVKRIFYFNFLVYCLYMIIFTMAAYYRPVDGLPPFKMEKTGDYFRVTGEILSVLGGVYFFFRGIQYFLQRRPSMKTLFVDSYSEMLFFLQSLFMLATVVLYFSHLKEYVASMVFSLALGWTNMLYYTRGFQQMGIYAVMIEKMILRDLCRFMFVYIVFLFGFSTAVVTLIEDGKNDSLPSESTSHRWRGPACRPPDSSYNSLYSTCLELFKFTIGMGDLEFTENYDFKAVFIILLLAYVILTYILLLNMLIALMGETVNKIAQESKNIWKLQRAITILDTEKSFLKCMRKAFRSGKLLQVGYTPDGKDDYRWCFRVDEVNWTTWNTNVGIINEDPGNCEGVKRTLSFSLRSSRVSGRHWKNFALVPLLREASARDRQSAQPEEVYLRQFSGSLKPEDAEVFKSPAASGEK

## COCCCOc1nc(C(F)(F)F)ccc1CNC(=O)C(C)c1ccc(NS(C)(=O)=O)c(F)c1 (stereo not shown) [Compound 18, N-((2-(3-Methoxypropoxy)-6-(trifluoromethyl)pyridin-3-yl)methyl)-2-(3-fluoro-4-(methylsulfonamido)phenyl)propanamide]
[1]
  fold less potent than 12, CAP antagonism: 22 fold

## CC(C(=O)NCc1ccc(C(F)(F)F)nc1OCc1ccccc1)c1ccc(NS(C)(=O)=O)c(F)c1 (stereo not shown) [Compound 53, N-((2-Benzyloxy-6-(trifluoromethyl)pyridin-3-yl)methyl)-(3-fluoro-4-(methylsulfonamido)phenyl)propanamide]
[2]
  analgesic activity in the formalin test: strong analgesic activity

## CC1CCN(c2nc(C(F)(F)F)ccc2CNC(=O)C(C)c2ccc(NS(C)(=O)=O)c(F)c2)CC1 (stereo not shown) [Compound 1, reference compound]
[1]; compound 1 vs lead 2
  fold better than precedent lead 2, CAP antagonism: 150 fold
[3]
  fold better than precedent lead 2, pH antagonism: 230 fold

## CC(C)COc1nc(C(F)(F)F)ccc1CNC(=O)C(C)c1ccc(NS(C)(=O)=O)c(F)c1 (stereo not shown) [Compound 22, N-((2-Isobutoxy-6-(trifluoromethyl)pyridin-3-yl)methyl)-2-(3-fluoro-4-(methylsulfonamido)phenyl)propanamide]
[2]
  analgesic activity in the formalin test: strong analgesic activity

## CCOCCCOc1nc(C(F)(F)F)ccc1CNC(=O)C(C)c1ccc(NS(C)(=O)=O)c(F)c1 (stereo not shown) [Compound 19, N-((2-(3-Ethoxypropoxy)-6-(trifluoromethyl)pyridin-3-yl)methyl)-2-(3-fluoro-4-(methylsulfonamido)phenyl)propanamide]
[1]; compared with 2-hexyloxy derivative 13
  fold less potent than 13, CAP antagonism: 20 fold

## CC/C=C\COc1nc(C(F)(F)F)ccc1CNC(=O)C(C)c1ccc(NS(C)(=O)=O)c(F)c1 (stereo not shown) [Compound 15, (Z)-N-((2-(Pent-2-en-1-yloxy)-6-(trifluoromethyl)pyridin-3-yl)methyl)-2-(3-fluoro-4-(methylsulfonamido)phenyl)propanamide]
[1]
  fold less potent than 12, CAP antagonism: ~1.5 fold

## COCCOc1nc(C(F)(F)F)ccc1CNC(=O)C(C)c1ccc(NS(C)(=O)=O)c(F)c1 (stereo not shown) [Compound 16, N-((2-(2-Methoxyethoxy)-6-(trifluoromethyl)pyridin-3-yl)methyl)-2-(3-fluoro-4-(methylsulfonamido)phenyl)propanamide]
[1]
  fold less potent than 11, CAP antagonism: 160 fold

## C/C=C\COc1nc(C(F)(F)F)ccc1CNC(=O)C(C)c1ccc(NS(C)(=O)=O)c(F)c1 (stereo not shown) [Compound 14, (Z)-N-((2-(But-2-en-1-yloxy)-6-(trifluoromethyl)pyridin-3-yl)methyl)-2-(3-fluoro-4-(methylsulfonamido)phenyl)propanamide]
[1]
  fold less potent than 11, CAP antagonism: ca. 5 fold

## CCOCCOc1nc(C(F)(F)F)ccc1CNC(=O)C(C)c1ccc(NS(C)(=O)=O)c(F)c1 (stereo not shown) [Compound 17, N-((2-(2-Ethoxyethoxy)-6-(trifluoromethyl)pyridin-3-yl)methyl)-2-(3-fluoro-4-(methylsulfonamido)phenyl)propanamide]
[1]
  fold less potent than 12, CAP antagonism: 70 fold
